Assay results as given in patent US10782295B2, “Cysteine-reactive ligand discovery in proteomes” (THE SCRIPPS RESEARCH INSTITUTE, priority 2013, dated 2020).

Columns and labels:
Assay in all cases: competitive isoTOP-ABPP, MDA-MB-231 soluble proteome
Type in all cases: binding
IDH1 = target: T1, IDH1 (Homo sapiens, UniProt O75874); details: 100 μM LDE, 60 min; peptide SEGGFIWAC*K
T1 construct: directly in native proteomes; endogenous in cells; host or cells: MDA-MB-231
Procedure: (§1) Here, we envisioned that isoTOP-ABPP could be advanced to discover and quantify reactions between cysteines in proteomes and any electrophilic compound. In this advanced, ‘competitive’ version of isoTOP-ABPP (FIG. 1a), a proteome is treated with an electrophile (experimental sample) or DMSO (control sample). Both proteomic samples are then labeled with the IA probe and conjugated by CuAAC to light and heavy azide-biotin tags, respectively. The light and heavy samples are then mixed and subjected to our described isoTOP-ABPP protocol for enrichment, identification, and quantification of IA-labeled cysteines^30. Electrophile-modified cysteines are quantified by measuring the MS1 chromatographic peak ratios (R values) for heavy (DMSO-treated) over light (electrophile-treated) samples, with higher R values reflecting greater sensitivity to the electrophile. In this format, competitive isoTOP-ABPP can assay electrophiles against 1000+ cysteines in parallel directly in native proteomes without requiring any chemical modification to the electrophiles themselves.
(§2) Competitive isoTOP-ABPP experiments were performed in quadruplicate using the soluble proteome of the human breast cancer cell line MDA-MB-231 cell line. Proteomes were treated with 100 μM HNE, 15d-PGJ2, or 2-HD, for 60 minutes, followed by the IA-probe (100 μM, 60 min) A total of ˜1400 cysteine reactivities were quantified across the aggregate data set, with at least 900 cysteine reactivities quantified for each LDE (FIG. 2a) more than 750 of which were quantified for all the three electrophiles.
(§3) HNE was purchased from EMD biosciences, 15d-PGJ2 was purchased from Cayman Chemicals and 2-HD was purchased from Santa Cruz Biotechnology. Proteome samples were diluted to a 4 mg protein/mL solution in PBS. For each profiling experiment, one aliquot of the proteome sample (0.5 mL) was treated with 100 μM of LDE using 5 μL of a 10 mM stock and the other aliquot was treated with 5 μL of either ethanol (for HNE and 15d-PGJ2) or DMSO (for 2-HD) as control. For the concentration-dependent profiling experiments using HNE, aliquots of the proteomes (0.5 mL each) were treated with 5, 10, 50, 100 and 500 μM of HNE using 5 μL of 0.5, 1.0, 5, 10 and 50 mM of stock solution, respectively. After 60 minutes of treatment at room temperature, both the LDE-treated and control aliquots were passed through a NAP-5 Sephadex column (GE healthcare) to remove any unreacted LDE. The volume of each aliquot was increased to 1 mL with the concentration at 2 mg/mL after this step.
(§4) Each of the control and LDE-treated proteome samples (˜2 mg protein/mL in 1 mL volume) was treated with 100 μM of IA-probe using 10 μL of a 10 mM stock in DMSO. The labeling reactions were incubated at room temperature for 1 hour. Click chemistry (acetylene-azide cycloaddition) was performed by the addition of 100 μM of either the Heavy-TEV-Tag (for the control sample) or Light-TEV-Tag (for the LDE-treated sample) (20 μL of a 5 mM stock), 1 mM TCEP (fresh 50× stock in water), 100 μM ligand (17× stock in DMSO:t-Butanol 1:4) and 1 mM CuSO4 (50× stock in water). Samples were allowed to react at room temperature for 1 hour. After the click chemistry step, the light and heavy-labeled samples were mixed together and centrifuged (5900×g, 4 min, 4° C.) to pellet the precipitated proteins.
(§5) The pellets were washed twice in cold MeOH, after which the pellet was solubilized in PBS containing 1.2% SDS via sonication and heating (5 min, 80° C.). Samples were subjected to streptavidin enrichment of probe-labeled proteins, sequential on-bead trypsin and TEV digestion, and liquid chromatography-mass spectrometry (LC-MS) analysis according to the published isoTOP-ABPP protocol^30.
(§6) IA-probe labeled peptides were identified by SEQUEST2 and DTASelect3, and the quantification of heavy/light ratios (isoTOP-ABPP ratios, R) was performed by an in-house software (CIMAGE) as previously described. […]

IFIT3 = target: T2, IFIT3 (Homo sapiens, UniProt O14879); details: 100 μM LDE, 60 min; peptide GLNPLNAYSDLAEFLETEC*YQTPFNK
T2 construct: directly in native proteomes; endogenous in cells; host or cells: MDA-MB-231
T2 sequence (O14879 1-490): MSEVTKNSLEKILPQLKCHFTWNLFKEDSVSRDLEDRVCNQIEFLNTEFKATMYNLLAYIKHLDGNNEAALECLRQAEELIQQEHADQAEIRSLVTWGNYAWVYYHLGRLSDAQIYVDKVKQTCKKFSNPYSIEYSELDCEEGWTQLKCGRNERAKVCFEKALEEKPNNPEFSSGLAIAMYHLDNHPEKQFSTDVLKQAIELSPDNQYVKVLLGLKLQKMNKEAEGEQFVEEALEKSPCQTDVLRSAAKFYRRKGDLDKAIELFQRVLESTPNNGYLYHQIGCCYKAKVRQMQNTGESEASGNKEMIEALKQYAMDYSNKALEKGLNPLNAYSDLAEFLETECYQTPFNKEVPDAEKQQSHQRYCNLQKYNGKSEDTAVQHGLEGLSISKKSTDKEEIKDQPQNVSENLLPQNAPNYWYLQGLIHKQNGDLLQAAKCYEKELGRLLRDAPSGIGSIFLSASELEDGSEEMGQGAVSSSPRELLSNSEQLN
Procedure: as §1, §2, §3, §4, §5, §6

PEF1 = target: T3, PEF1 (Homo sapiens, UniProt Q9UBV8); details: 100 μM LDE, 60 min; peptide QALVNC*NWSSFNDETCLMMINMFDK
T3 construct: directly in native proteomes; endogenous in cells; host or cells: MDA-MB-231
T3 sequence (Q9UBV8 1-284): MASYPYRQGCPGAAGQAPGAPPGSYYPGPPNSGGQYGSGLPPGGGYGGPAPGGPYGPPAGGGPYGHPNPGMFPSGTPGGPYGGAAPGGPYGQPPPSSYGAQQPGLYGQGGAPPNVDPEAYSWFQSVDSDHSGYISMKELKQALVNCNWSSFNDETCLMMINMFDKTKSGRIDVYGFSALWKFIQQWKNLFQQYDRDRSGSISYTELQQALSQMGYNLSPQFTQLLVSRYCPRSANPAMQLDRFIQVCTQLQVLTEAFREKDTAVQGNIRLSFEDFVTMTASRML
Procedure: as §1, §2, §3, §4, §5, §6

T1 sequence (O75874 whole entry): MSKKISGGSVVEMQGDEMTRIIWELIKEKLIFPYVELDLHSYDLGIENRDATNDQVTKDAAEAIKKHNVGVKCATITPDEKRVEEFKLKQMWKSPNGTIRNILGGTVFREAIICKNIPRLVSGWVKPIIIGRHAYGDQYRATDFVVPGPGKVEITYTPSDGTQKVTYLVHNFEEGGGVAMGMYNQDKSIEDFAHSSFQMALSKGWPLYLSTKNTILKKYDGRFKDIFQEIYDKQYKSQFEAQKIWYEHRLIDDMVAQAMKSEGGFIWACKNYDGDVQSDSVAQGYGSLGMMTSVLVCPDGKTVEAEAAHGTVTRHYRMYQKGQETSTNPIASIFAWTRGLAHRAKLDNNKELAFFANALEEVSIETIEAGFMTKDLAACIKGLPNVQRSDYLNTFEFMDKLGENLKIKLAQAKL

SMILES | R value (isoTOP-ABPP ratio heavy/light) for IA-labeled cysteine of IDH1 (IDH1) | R value (isoTOP-ABPP ratio heavy/light) for IA-labeled cysteine of IFIT3 (IFIT3) | R value (isoTOP-ABPP ratio heavy/light) for IA-labeled cysteine of PEF1 (PEF1)
CCCCCCCCCCCCC/C=C/C=O [2-HD, 2-trans-hexadecenal] | 1.13 | 1.23 | 1.25
CCCCCC(O)/C=C/C=O (stereo not drawn) [4-HNE, 4-Hydroxynonenal] | 1.3 | 1.51 | 5.14
CCCCC/C=C/C=C1/C(=O)C=C[C@@H]1C/C=C\CCCC(=O)O [PGJ2, 15-deoxy-Δ12,14-prostaglandin J2] | 6.66 | 9.43 | 2.9
